Consider 22 molecules from patent US20240076299A1, “TUBERCULATIN ANALOGS AS ANTIVIRAL AGENTS” (priority 2020, published 2024).

One data set relates to AIV. Briefly: microbe, parasite or virus in culture. It counts as cell-based, avian influenza virus (H5N1). The conditions noted are these: Influenza A virus, read-out: EC50 (nM) AIV.
Data set [1] deals with SARS-CoV-2. Briefly: microbe, parasite or virus in culture. The conditions noted are these: for inhibition at 2 µM: Severe acute respiratory syndrome coronavirus 2, 48 h.
A further data set concerns HIV. As to the kind of experiment: microbe, parasite or virus in culture. It counts as cell-based, HIV-1.
The test system of the next data set is VSV. As to the kind of experiment: microbe, parasite or virus in culture. The data set is classed as cell-based. The conditions noted are these: Vesicular stomatitis virus, read-out: EC50 (nM) VSV.
Another data set is described as follows: in vitro. As to conditions: human.
Data set [2] is described as follows: Cytotoxicity evaluation using the SRB assay. The conditions noted are these: human, triplicate.
Data set [3] concerns SARS-CoV-2.
Where [4] appears, read: read-out: EC50 (2000 nM) SARS-COV-2.
Setting [5] is: read-out: EC50 (2000 nM) SARS-COV-2, % inhibitory effect at 2000 nM against SARS-CoV-2, triplicate.
The mark [6] stands for this setting: CC50 (nM) A549, Table 2, host A549 cells.
Where [7] appears, read: CC50 (nM), Table 1, inhibition of cell growth of host A549 cells by 50%.
[8] abbreviates: A549 cells, CC50 (nM) A549, Table 2, host A549 cells.
Setting [9] is: A549 cells, CC50 (nM), Table 1, inhibition of cell growth of host A549 cells by 50%.

Read-outs that look alike come from different tables or passages of the source.

For `COc1cc2c(O)c3c(c(-c4ccc5c(c4)OCO5)c2cc1OC)C(=O)OC3` [Diphyllin (7), diphyllin, reference compound], the EC50 in the data set on AIV is 2.36 nM; in the data set with HIV (Human immunodeficiency virus 1) it was 0.17 µM; with VSV it was 11.2 nM. Moreover, the inhibition at 2 µM in the data set with SARS-CoV-2 [1] (setting [4]) amounted to 94.6%. The CC50 at 2 days is 2460 nM in “in vitro” (CC50 (nM)) and 1980 nM in the data set “in vitro” (CC50 (nM) A549).
Turning to `COc1cc2c(O[C@H]3OC[C@](O)(COC(C)=O)[C@H]3O)c3c(c(-c4ccc5c(c4)OCO5)c2cc1OC)C(=O)OC3` [Compound 23], the EC50 in the data set with AIV was determined as 0.3 nM; in the data set with HIV (Human immunodeficiency virus 1) it was 0.0434 µM; in the data set on VSV it was 1.24 nM. Besides, the inhibition at 2 µM in the data set on SARS-CoV-2 [1] (setting [5]) was determined as 96.7%. The CC50 at 2 days in data set [2] (setting [6]) was 158 nM; in data set [2] (setting [7]) it was 736 nM.
With `COc1cc2c(O[C@@H]3OC[C@@]4(COC(C)=O)OC(C)(C)O[C@@H]34)c3c(c(-c4ccc5c(c4)OCO5)c2cc1OC)C(=O)OC3` [Compound 11], in the data set with SARS-CoV-2 [1] (setting [5]), the inhibition at 2 µM is greater than 80%. In the data set with HIV (Human immunodeficiency virus 1), this molecule displayed an EC50 of 0.208 µM. Further, the “activity against SARS-CoV-2 (conclusion)” value in the data set with SARS-CoV-2 [3] was “active molecules”. Moreover, the CC50 at 2 days in data set [2] (setting [7]) is 1260 nM.
Regarding `COc1cc2c(O[C@H]3OC[C@@]4(CO)OC(c5ccccc5)O[C@@H]34)c3c(c(-c4ccc5c(c4)OCO5)c2cc1OC)C(=O)OC3` (stereo partly shown) [Compound 18], the EC50 worked out at 0.71 nM with AIV, 0.00737 µM with HIV (Human immunodeficiency virus 1) and 2.43 nM in the data set on VSV. The inhibition at 2 µM in the data set on SARS-CoV-2 [1] (setting [5]) worked out at 98.3%. Moreover, the CC50 at 2 days in data set [2] (setting [8]) came out at 208 nM; in data set [2] (setting [9]) it was 184 nM.
Regarding `COc1cc2c(O[C@@H]3OC[C@@]4(CO)OC(c5ccccc5)O[C@@H]34)c3c(c(-c4cc5c(cc4OCc4ccccc4)OCO5)c2cc1OC)C(=O)OC3` (stereo partly shown) [Compound 43], the EC50 in the data set with HIV (Human immunodeficiency virus 1) is greater than 25 µM. The CC50 at 2 days in data set [2] (setting [9]) was greater than 25000 nM.
Consider `Cc1ccnc2c1NC(=O)c1cccnc1N2C1CC1` [Nevirapine, reference compound], for which, in the data set with HIV (Human immunodeficiency virus 1), a half-maximal effect (EC50) was put at 0.0358 µM. Moreover, the CC50 at 2 days in data set [2] (setting [7]) is greater than 200 nM.
On to `COc1cc2c(OC3OCC(O)(CO)C3OC3OCC(O)C(O)C3O)c3c(c(-c4cc5c(cc4O)OCO5)c2cc1OC)C(=O)OC3` (single isomer, unassigned) [Compound 49], for which, in the data set on HIV, a half-maximal response (EC50) required 5.45 µM and the “antiviral activity of R atropisomer versus corresponding S atropisomer” value is listed as “much more potent antiviral activities”. The molecule also came in with a CC50 at 2 days in the data set “in vitro” (CC50 (nM)) of 23500 nM.
As for `CCOC(=O)c1c(CSc2ccccc2)n(C)c2cc(Br)c(O)c(CN(C)C)c12` [arbidol, reference compound], the half-inhibitory concentration (IC50) in the data set on SARS-CoV-2 [1] (Severe acute respiratory syndrome coronavirus 2, HepG2, read-out: IC50 against SARS-CoV-2 pseudovirion) amounted to 5.23 µM.
Turning to `COc1cc2c(O[C@H]3OC[C@@]4(COC(C)=O)OC(c5ccccc5)O[C@@H]34)c3c(c(-c4ccc5c(c4)OCO5)c2cc1OC)C(=O)OC3` (stereo partly shown) [Compound 21], the EC50 stood at 6.25 nM with AIV, 0.126 µM with HIV (Human immunodeficiency virus 1) and 12 nM in the data set on VSV. Also, the inhibition at 2 µM with SARS-CoV-2 [1] (setting [5]) is 96.3%. Moreover, the CC50 at 2 days in data set [2] (setting [6]) stood at 93 nM; in data set [2] (setting [7]), 328 nM.
For `COc1cc2c(OC3OCC(O)(COC4OCC(O)C(O)C4O)C3OC3OCC(O)C(OC4OCC(O)(CO)C4O)C3O)c3c(c(-c4cc5c(cc4O)OCO5)c2cc1OC)C(=O)OC3` (single isomer, unassigned) [Compound 53], the “antiviral activity of R atropisomer versus corresponding S atropisomer” value in the data set with HIV was “much more potent antiviral activities”. The same molecule came in with an EC50 in the data set on HIV (Human immunodeficiency virus 1) of 14.7 µM. The CC50 at 2 days in the data set “in vitro” (CC50 (nM)) was greater than 25000 nM.
Regarding `COc1cc2c(OC3OCC(O)(CO)C3O)c3c(c(-c4cc5c(cc4O)OCO5)c2cc1OC)C(=O)OC3` (single isomer, unassigned) [Compound 45], in the data set with HIV, the midpoint of the response, the EC50, lay at 2.73 µM and the “antiviral activity of R atropisomer versus corresponding S atropisomer” value is listed as “much more potent antiviral activities”. The CC50 at 2 days in “in vitro” (CC50 (nM)) came to 46800 nM.
In the case of `COc1cc2c(O[C@H]3OC[C@@]4(COC(=O)c5cccnc5)OC(C)(C)O[C@@H]34)c3c(c(-c4ccc5c(c4)OCO5)c2cc1OC)C(=O)OC3` [Compound 29], the results for the EC50 in the data set with AIV, with HIV (Human immunodeficiency virus 1) and in the data set with VSV were 8.66 nM, 0.0918 µM and 19.9 nM, respectively. In addition, in the data set on SARS-CoV-2 [1] (setting [5]), the inhibition at 2 µM stood at 95.6%. Moreover, the CC50 at 2 days in data set [2] (setting [8]) worked out at 483 nM; in data set [2] (setting [9]), 381 nM.
As to `COc1cc2c(O[C@H]3OC[C@@]4(CN(C)C)OC(C)(C)O[C@@H]34)c3c(c(-c4ccc5c(c4)OCO5)c2cc1OC)C(=O)OC3` [Compound 31], the inhibition at 2 µM in the data set with SARS-CoV-2 [1] (setting [5]) worked out at 91.9%. Besides, the response in the data set on HIV (Human immunodeficiency virus 1) was half-maximal at 0.177 µM (EC50). In data set [2] (setting [7]), this molecule returned a CC50 at 2 days of 1400 nM.
With `COc1cc2c(O[C@H]3OC[C@@]4(COC(=O)c5ccncc5)OC(C)(C)O[C@@H]34)c3c(c(-c4ccc5c(c4)OCO5)c2cc1OC)C(=O)OC3` [Compound 28], the EC50 in the data set on AIV stood at 16.7 nM; in the data set with HIV (Human immunodeficiency virus 1) it was 0.486 µM; in the data set on VSV, 56.1 nM. Moreover, the inhibition at 2 µM in the data set on SARS-CoV-2 [1] (setting [4]) is 93%. The CC50 at 2 days in “in vitro” (CC50 (nM)) was 2210 nM; in “in vitro” (CC50 (nM) A549) it was 560 nM.
As to `COc1cc2c(O[C@H]3OC[C@@]4(CO)OC(C)(C)O[C@@H]34)c3c(c(-c4ccc5c(c4)OCO5)c2cc1OC)C(=O)OC3` [Compound 10], the EC50 in the data set with AIV was determined as 0.75 nM; in the data set on HIV (Human immunodeficiency virus 1) it was 0.00097 µM; with VSV it was 1.5 nM. For the same molecule, in the data set with SARS-CoV-2 [1] (setting [5]), the inhibition at 2 µM worked out at 95.6%. The results for the CC50 at 2 days in data set [2] (setting [6]) and in data set [2] (setting [7]) were 400 nM and 188 nM, respectively.
On to `COc1cc2c(OC3OCC(O)(COC4OCC(O)C(O)C4O)C3OC3OCC(O)C(O)C3O)c3c(c(-c4cc5c(cc4O)OCO5)c2cc1OC)C(=O)OC3` (single isomer, unassigned) [Compound 51], for which the “antiviral activity of R atropisomer versus corresponding S atropisomer” value with HIV is reported as “much more potent antiviral activities”. In the data set on HIV (Human immunodeficiency virus 1), the EC50 stood at 15.7 µM. Moreover, the CC50 at 2 days in data set [2] (setting [7]) was greater than 25000 nM.
In the data set with HIV (Human immunodeficiency virus 1), `COc1cc2c(OC3OC[C@@]4(CO[Si](c5ccccc5)(c5ccccc5)C(C)(C)C)OC(c5ccccc5)O[C@@H]34)c3c(c(-c4cc5c(cc4OCc4ccccc4)OCO5)c2cc1OC)C(=O)OC3` (stereo partly shown) [Compound 42] registered an EC50 greater than 25 µM. Further, in data set [2] (setting [9]), the CC50 at 2 days is greater than 25000 nM.
For the molecule `COc1cc2c(O[C@@H]3OC[C@@]4(CO)OC(c5ccccc5)O[C@@H]34)c3c(c(-c4ccc5c(c4)OCO5)c2cc1OC)C(=O)OC3` (stereo partly shown) [Compound 17], the inhibition at 2 µM in the data set with SARS-CoV-2 [1] (setting [5]) was determined as 66.2%. In the data set with HIV (Human immunodeficiency virus 1), this molecule came in with an EC50 of 0.251 µM. Moreover, the CC50 at 2 days in data set [2] (setting [9]) stood at 2240 nM.
Regarding `COc1cc2c(O[C@H]3OC[C@@]4(CN5CCOCC5)OC(C)(C)O[C@@H]34)c3c(c(-c4ccc5c(c4)OCO5)c2cc1OC)C(=O)OC3` [Compound 30], in the data set with SARS-CoV-2 [1] (setting [4]), the inhibition at 2 µM stood at 92.7%. The molecule also had an EC50 in the data set with HIV (Human immunodeficiency virus 1) of 0.018 µM. Moreover, in “in vitro” (CC50 (nM)), the CC50 at 2 days was determined as 1190 nM.
Take `COc1cc2c(O[C@H]3OC[C@@]4(CO)OC(c5ccccc5)O[C@@H]34)c3c(c(-c4cc5c(cc4OCc4ccccc4)OCO5)c2cc1OC)C(=O)OC3` (stereo partly shown) [Compound 44]: the EC50 in the data set with HIV (Human immunodeficiency virus 1) was greater than 25 µM. This molecule came in with a CC50 at 2 days in data set [2] (setting [9]) greater than 25000 nM.
Turning to `COc1cc2c(OC3OC[C@@]4(CO[Si](c5ccccc5)(c5ccccc5)C(C)(C)C)OC(c5ccccc5)O[C@@H]34)c3c(c(-c4ccc5c(c4)OCO5)c2cc1OC)C(=O)OC3` (stereo partly shown) [Compound 16], the inhibition at 2 µM with SARS-CoV-2 [1] (setting [5]) worked out at 32.4%. The midpoint of the response in the data set with HIV (Human immunodeficiency virus 1), the EC50, lay at 6.58 µM. In data set [2] (setting [9]), this molecule showed a CC50 at 2 days greater than 20000 nM.
With `COc1cc2c(O[C@H]3OC[C@](O)(CO)[C@H]3O)c3c(c(-c4ccc5c(c4)OCO5)c2cc1OC)C(=O)OC3` [Compound 19], the EC50 with AIV was determined as 70 nM; in the data set with HIV (Human immunodeficiency virus 1) it was 0.0119 µM; in the data set with VSV, 144 nM. Moreover, the inhibition at 2 µM in the data set on SARS-CoV-2 [1] (setting [5]) was 98.3%. For the same molecule, the CC50 at 2 days in data set [2] (setting [6]) came to 2100 nM; in data set [2] (setting [7]), 368 nM.
